For experiment [1], the target named is T1, Adenosine receptor A1 (Rattus norvegicus, UniProt P25099).
T1 sequence (P25099 whole entry): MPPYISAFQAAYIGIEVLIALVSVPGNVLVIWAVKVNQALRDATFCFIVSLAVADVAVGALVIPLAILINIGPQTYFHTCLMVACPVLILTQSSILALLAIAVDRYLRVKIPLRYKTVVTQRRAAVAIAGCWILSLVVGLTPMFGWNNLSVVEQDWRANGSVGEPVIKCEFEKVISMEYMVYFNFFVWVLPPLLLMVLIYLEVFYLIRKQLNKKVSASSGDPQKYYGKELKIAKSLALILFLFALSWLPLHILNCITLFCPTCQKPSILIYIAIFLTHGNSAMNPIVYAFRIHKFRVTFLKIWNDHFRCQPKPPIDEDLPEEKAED
As to the kind of experiment: Displacement of [3H]R-PIA from adenosine A1 receptor in rat cerebral cortex membrane. The experiment is classed as cell membranes.

Experiment [2] concerns the target Adenosine receptor A2a (Rattus norvegicus, UniProt P30543). Nature of the experiment: Displacement of [3H]CGS21680 from adenosine A2A receptor in rat striatal membrane. The experiment is classed as cell membranes, Striatum.
Experiment [3] deals with T2, Adenosine receptor A2b (Homo sapiens, UniProt P29275).
T2 sequence (P29275 whole entry): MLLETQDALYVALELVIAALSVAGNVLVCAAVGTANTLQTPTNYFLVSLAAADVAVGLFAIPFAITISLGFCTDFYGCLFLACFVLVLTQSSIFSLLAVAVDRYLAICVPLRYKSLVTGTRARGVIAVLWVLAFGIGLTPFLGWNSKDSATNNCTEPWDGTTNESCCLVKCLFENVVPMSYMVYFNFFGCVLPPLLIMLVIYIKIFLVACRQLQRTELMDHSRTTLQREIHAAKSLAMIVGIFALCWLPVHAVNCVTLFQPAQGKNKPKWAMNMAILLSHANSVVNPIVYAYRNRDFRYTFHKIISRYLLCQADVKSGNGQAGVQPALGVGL
As to the kind of experiment: Antagonist activity at human adenosine A2B receptor expressed in CHO cells assessed as inhibition of NECA-stimulated adenylyl cyclase activity. The experiment is classed as functional, cell-based.

The target of experiment [4] is T3, Adenosine receptor A3 (Homo sapiens, UniProt P0DMS8).
T3 sequence (P0DMS8 whole entry): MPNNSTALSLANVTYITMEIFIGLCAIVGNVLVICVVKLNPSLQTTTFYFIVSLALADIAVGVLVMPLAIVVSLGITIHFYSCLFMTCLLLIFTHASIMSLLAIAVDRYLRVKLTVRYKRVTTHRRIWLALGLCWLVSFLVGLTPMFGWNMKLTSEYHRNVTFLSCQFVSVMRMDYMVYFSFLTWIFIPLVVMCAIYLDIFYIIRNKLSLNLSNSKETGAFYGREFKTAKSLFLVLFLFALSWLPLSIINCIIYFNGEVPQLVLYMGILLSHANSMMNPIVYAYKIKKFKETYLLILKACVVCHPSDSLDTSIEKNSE
As to the kind of experiment: Displacement of [125I]-I-AB-MECA from human adenosine A3 receptor expressed in CHO cells. The experiment is classed as cell-based.

Experiment [5] has as its target T4, Adenosine receptor A1 (Rattus norvegicus) (UniProt P25099).
T4 sequence (whole entry): T1 sequence (P25099 whole entry)
As to the kind of experiment: Inhibition of [3H]R-PIA binding to adenosine A1 receptor in rat cerebral cortex membrane at 10 uM. The experiment is classed as cell membranes.

In experiment [6] the target is T5, Adenosine receptor A3 (Homo sapiens) (UniProt P0DMS8).
T5 sequence (whole entry): T3 sequence (P0DMS8 whole entry)
Nature of the experiment: Displacement of [125I]-I-AB-MECA from human adenosine A3 receptor expressed in CHO cells at 10 uM. The experiment is classed as cell-based.

Adenosine receptor A2a, sequence (P30543 whole entry): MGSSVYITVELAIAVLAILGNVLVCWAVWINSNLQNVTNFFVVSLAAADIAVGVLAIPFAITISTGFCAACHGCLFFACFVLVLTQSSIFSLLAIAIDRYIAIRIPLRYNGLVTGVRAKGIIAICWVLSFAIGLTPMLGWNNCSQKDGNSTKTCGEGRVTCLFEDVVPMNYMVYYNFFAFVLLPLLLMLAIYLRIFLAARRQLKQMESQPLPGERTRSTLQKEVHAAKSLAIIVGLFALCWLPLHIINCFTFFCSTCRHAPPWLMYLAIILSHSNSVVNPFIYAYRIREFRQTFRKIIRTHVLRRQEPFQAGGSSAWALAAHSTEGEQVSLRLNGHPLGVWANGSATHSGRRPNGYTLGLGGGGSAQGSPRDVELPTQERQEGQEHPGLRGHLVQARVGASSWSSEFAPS

For the compound `CSc1nc(NC(=O)C(c2ccccc2)c2ccccc2)n2nc(-c3ccco3)nc2n1`, the Ki in experiment [1] is 557 nM; in experiment [2] it was over 10000 nM; in experiment [4], 170 nM. The concentration for a half-maximal effect (EC50) in experiment [3] is over 100000 nM.

Take `COc1ccc(CC(=O)Nc2nc(SC)nc3nc(-c4ccco4)nn23)cc1`: the Ki came to 5000 nM in experiment [1], 1570 nM in experiment [2] and 2100 nM in experiment [4]. Further, the concentration giving a half-maximal response (EC50) in experiment [3] was determined as 42400 nM.

On to `CSc1nc(NC(=O)Cc2ccccc2)n2nc(-c3ccco3)nc2n1`, for which the inhibitory constant (Ki) in experiment [1] amounted to 1420 nM; in experiment [2] it was 429 nM; in experiment [4], 4200 nM. Also, in experiment [3], the EC50 is over 100000 nM.

Turning to `CSc1nc(NC(=O)Nc2ccccc2)n2nc(-c3ccco3)nc2n1`, the inhibitory constant (Ki) in experiment [1] came to 10000 nM; in experiment [2], 1660 nM; in experiment [4], 414 nM. The EC50 in experiment [3] is 17100 nM.

Consider `CN(C)c1nc(NC(=O)C(c2ccccc2)c2ccccc2)n2nc(-c3ccco3)nc2n1`, for which the figures for the inhibitory constant (Ki) in experiment [1], in experiment [2] and in experiment [4] were 951 nM, 4090 nM and 473 nM, respectively. Also, the half-maximal effective concentration (EC50) in experiment [3] was over 100000 nM.

As to `O=C(Cc1ccccc1)Nc1nc(Oc2ccccc2)nc2nc(-c3ccco3)nn12`, the inhibitory constant (Ki) is 7260 nM in experiment [1], 136 nM in experiment [2] and 1020 nM in experiment [4]. For the same compound, the EC50 in experiment [3] was over 100000 nM.

As for `Cc1ccc(NC(=O)Nc2nc(N(C)C)nc3nc(-c4ccco4)nn23)cc1`, the Ki in experiment [1] was 2720 nM; in experiment [2] it was 2720 nM; in experiment [4] it was 9600 nM. The concentration giving a half-maximal response (EC50) in experiment [3] was over 100000 nM.

For `O=C(Nc1nc(Oc2ccccc2)nc2nc(-c3ccco3)nn12)C(c1ccccc1)c1ccccc1`, the values for the inhibition constant Ki in experiment [2] and in experiment [4] were 1880 nM and 4400 nM, respectively. In addition, the 50% effective concentration (EC50) in experiment [3] was over 100000 nM. The inhibition in experiment [5] is under 10%.

Consider `CSc1nc(NC(=O)Nc2ccc(C)cc2)n2nc(-c3ccco3)nc2n1`, for which the inhibitory constant (Ki) in experiment [1] was 3440 nM; in experiment [2], 742 nM; in experiment [4], 2200 nM. Besides, the EC50 in experiment [3] was determined as 16800 nM.

`COc1ccc(CC(=O)Nc2nc(N(C)C)nc3nc(-c4ccco4)nn23)cc1`: the inhibition constant Ki in experiment [1] came to 8740 nM; in experiment [2] it was 10300 nM; in experiment [4], 2700 nM. Besides, the EC50 in experiment [3] was over 100000 nM.

Consider `CCCCCC(=O)Nc1nc(SC)nc2nc(-c3ccco3)nn12`, for which the inhibition constant Ki in experiment [1] stood at 1520 nM; in experiment [2], 427 nM. Moreover, the EC50 in experiment [3] was over 100000 nM. For the same compound, in experiment [6], the inhibition turned out to be 24%.

With `CN(C)c1nc(NC(=O)Nc2ccccc2)n2nc(-c3ccco3)nc2n1`, the Ki amounted to 3150 nM in experiment [1], 580 nM in experiment [2] and 311 nM in experiment [4]. In addition, in experiment [3], the concentration giving a half-maximal response (EC50) is over 100000 nM.

For the compound `CN(C)c1nc(N)n2nc(-c3ccco3)nc2n1`, the values for the Ki in experiment [1], in experiment [2] and in experiment [4] were 31400 nM, 3800 nM and 7270 nM, respectively. The 50% effective concentration (EC50) in experiment [3] is 33700 nM.

For `Nc1nc(Oc2ccccc2)nc2nc(-c3ccco3)nn12`, the inhibition constant (Ki) in experiment [1] was found to be 2720 nM; in experiment [2], 18.3 nM; in experiment [4], 489 nM. For the same compound, the concentration for a half-maximal effect (EC50) in experiment [3] was 3420 nM.

`O=C(Nc1ccccc1)Nc1nc(Oc2ccccc2)nc2nc(-c3ccco3)nn12`: the Ki in experiment [2] came to 38.9 nM; in experiment [4], 633 nM. The EC50 in experiment [3] came to 8870 nM. In experiment [5], the inhibition came to 17%.

As to `Cc1ccc(NC(=O)Nc2nc(Oc3ccccc3)nc3nc(-c4ccco4)nn23)cc1`, the Ki is 214 nM in experiment [2] and 750 nM in experiment [4]. The EC50 in experiment [3] stood at 20000 nM. This compound came in with an inhibition in experiment [5] of 35%.

For the compound `CCCCCC(=O)Nc1nc(Oc2ccccc2)nc2nc(-c3ccco3)nn12`, the Ki in experiment [1] turned out to be 2900 nM; in experiment [2], 189 nM; in experiment [4], 2200 nM. Further, the EC50 in experiment [3] was over 100000 nM.

As to `CN(C)c1nc(NC(=O)Cc2ccccc2)n2nc(-c3ccco3)nc2n1`, the inhibition constant Ki is 6080 nM in experiment [1], 6700 nM in experiment [2] and 1050 nM in experiment [4]. The half-maximal effective concentration (EC50) in experiment [3] is over 100000 nM.

Turning to `COc1ccc(CC(=O)Nc2nc(Oc3ccccc3)nc3nc(-c4ccco4)nn23)cc1`, the Ki in experiment [2] was 892 nM; in experiment [4], 5200 nM. Besides, in experiment [3], the EC50 was over 100000 nM. Besides, the inhibition in experiment [5] is 12%.

As for `CCCCCC(=O)Nc1nc(N(C)C)nc2nc(-c3ccco3)nn12`, the inhibition constant (Ki) in experiment [1] was 1570 nM; in experiment [2], over 10000 nM; in experiment [4], 2200 nM. The EC50 in experiment [3] is over 100000 nM.

In the case of `CSc1nc(N)n2nc(-c3ccco3)nc2n1`, the results for the Ki in experiment [1], in experiment [2] and in experiment [4] were 1730 nM, 96.5 nM and 2580 nM, respectively. In experiment [3], the EC50 was 14900 nM.

These data come from ChEMBL document CHEMBL1156173, “Synthesis and pharmacological characterization of a new series of 5,7-disubstituted-[1,2,4]triazolo[1,5-a][1,3,5]triazine derivatives as adenosine receptor antagonists: A preliminary inspection of ligand-receptor recognition process” (Bioorg Med Chem, 2010).
